Experimental data from PubChem BioAssay AID2060504 (Molecular Pharmacology Branch, DTP, NCI, 2025).

System: 636577-100-R-J1-PDC complex spheroid viability
Experiment: Anticancer human tumor 636577-100-R-J1-PDC patient-derived endometrial adenocarcinoma cell line growth inhibition [GQUAD]
Conditions: for IC50: curve of first compound; for viability, T/C: stronger effect = lower value
Outline: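 Tumor cells were grown as complex spheroids with HUVEC endothelial cells and mesenchymal stem cells as stroma. G-quadruplex stabilizers were combined with targeted agents over half-log dilutions from near the clinical Cmax, or from 10 microM.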

[1] = second compound 0.0316 µM, first compound 0.0316 µM
[2] = second compound 0.0316 µM, first compound 0.1 µM
[3] = second compound 0.0316 µM, first compound 0.316 µM
[4] = second compound 0.0316 µM, first compound 1 µM
[5] = second compound 0.0316 µM, first compound 3.16 µM
[6] = second compound 0.0316 µM, first compound 10 µM
[7] = second compound 0.1 µM, first compound 0.0316 µM
[8] = second compound 0.1 µM, first compound 0.1 µM
[9] = second compound 0.1 µM, first compound 0.316 µM
[10] = second compound 0.1 µM, first compound 1 µM
[11] = second compound 0.1 µM, first compound 3.16 µM
[12] = second compound 0.1 µM, first compound 10 µM
[13] = second compound 0.316 µM, first compound 0.0316 µM
[14] = second compound 0.316 µM, first compound 0.1 µM
[15] = second compound 0.316 µM, first compound 0.316 µM
[16] = second compound 0.316 µM, first compound 1 µM
[17] = second compound 0.316 µM, first compound 3.16 µM
[18] = second compound 0.316 µM, first compound 10 µM
[19] = second compound 1 µM, first compound 0.0316 µM
[20] = second compound 1 µM, first compound 0.1 µM
[21] = second compound 1 µM, first compound 0.316 µM
[22] = second compound 1 µM, first compound 1 µM
[23] = second compound 1 µM, first compound 3.16 µM
[24] = second compound 1 µM, first compound 10 µM
[25] = second compound 3.16 µM, first compound 0.0316 µM
[26] = second compound 3.16 µM, first compound 0.1 µM
[27] = second compound 3.16 µM, first compound 0.316 µM
[28] = second compound 3.16 µM, first compound 1 µM
[29] = second compound 3.16 µM, first compound 3.16 µM
[30] = second compound 3.16 µM, first compound 10 µM
[31] = second compound 10 µM, first compound 0.0316 µM
[32] = second compound 10 µM, first compound 0.1 µM
[33] = second compound 10 µM, first compound 0.316 µM
[34] = second compound 10 µM, first compound 1 µM
[35] = second compound 10 µM, first compound 3.16 µM
[36] = second compound 10 µM, first compound 10 µM
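Further: viability read after seven days of drug exposure.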
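Wherever viability, T/C is given: luminescence signal used as a proxy for viable cells; 100% = DMSO vehicle control wells.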

With CCCS(=O)(=O)Nc1ccc(F)c(C(=O)c2c[nH]c3ncc(-c4ccc(Cl)cc4)cc23)c1F + Cc1cnc(CNC(=O)c2c(=O)c3ccc(N4CCCN(C)CC4)nc3n3c2sc2ccccc23)cn1 the IC50 (second compound 0.0316 µM) was < 31.6 nM, the IC50 (second compound 0.1 µM) was < 31.6 nM and the IC50 (second compound 0.316 µM) was < 31.6 nM. The IC50 (second compound 1 µM) was < 31.6 nM, the IC50 (second compound 3.16 µM) was < 31.6 nM and the IC50 (second compound 10 µM) was < 31.6 nM. The viability, T/C [1] was 41.1%, the viability, T/C [2] was 40.1% and the viability, T/C [3] was 61.3%. The viability, T/C [4] was 33.9%, the viability, T/C [5] was 44.3% and the viability, T/C [6] was 24.2%. The viability, T/C [7] was 32%, the viability, T/C [8] was 31% and the viability, T/C [9] was 33.2%. It also gave a viability, T/C [10] of 31%, a viability, T/C [11] of 29.8% and a viability, T/C [12] of 21.4%. For the same molecule, the viability, T/C [13] was 24.1%, the viability, T/C [14] was 25.8% and the viability, T/C [15] was 29.9%. The viability, T/C [16] was 27.4%, the viability, T/C [17] was 26.9% and the viability, T/C [18] was 15.7%. It also gave a viability, T/C [19] of 17.6%, a viability, T/C [20] of 24.2% and a viability, T/C [21] of 27.4%. The viability, T/C [22] was 26.8%, the viability, T/C [23] was 24.9% and the viability, T/C [24] was 14.7%. For the same molecule, the viability, T/C [25] was 17.5%, the viability, T/C [26] was 21.9% and the viability, T/C [27] was 22%. It also gave a viability, T/C [28] of 25.1%, a viability, T/C [29] of 22.7% and a viability, T/C [30] of 15.4%. It also gave a viability, T/C [31] of 20.2%, a viability, T/C [32] of 22.1% and a viability, T/C [33] of 18.5%. The viability, T/C [34] was 21.1%, the viability, T/C [35] was 21.7% and the viability, T/C [36] was 6.34%.
With COc1ncnc(C2CC2)c1-c1ncc2cnn(Cc3ccc(-c4nc(C(F)(F)F)cn4C(C)C)cc3)c2n1 + Cc1cnc(CNC(=O)c2c(=O)c3ccc(N4CCCN(C)CC4)nc3n3c2sc2ccccc23)cn1 the IC50 (second compound 0.0316 µM) was < 31.6 nM, the IC50 (second compound 0.1 µM) was < 31.6 nM and the IC50 (second compound 0.316 µM) was < 31.6 nM. For the same molecule, the IC50 (second compound 1 µM) was < 31.6 nM, the IC50 (second compound 3.16 µM) was < 31.6 nM and the IC50 (second compound 10 µM) was < 31.6 nM. The viability, T/C [1] was 37.8%, the viability, T/C [2] was 36% and the viability, T/C [3] was 42.7%. The viability, T/C [4] was 32.1%, the viability, T/C [5] was 37.7% and the viability, T/C [6] was 31.4%. The viability, T/C [7] was 29.7%, the viability, T/C [8] was 26.2% and the viability, T/C [9] was 29.4%. The viability, T/C [10] was 25.2%, the viability, T/C [11] was 28% and the viability, T/C [12] was 27.4%. The viability, T/C [13] was 24.2%, the viability, T/C [14] was 24.7% and the viability, T/C [15] was 25.8%. For the same molecule, the viability, T/C [16] was 21.6%, the viability, T/C [17] was 25.2% and the viability, T/C [18] was 24.5%. For the same molecule, the viability, T/C [19] was 19.5%, the viability, T/C [20] was 18.5% and the viability, T/C [21] was 22%. The viability, T/C [22] was 20.4%, the viability, T/C [23] was 25.4% and the viability, T/C [24] was 22.6%. For the same molecule, the viability, T/C [25] was 16.3%, the viability, T/C [26] was 21.4% and the viability, T/C [27] was 22.7%. For the same molecule, the viability, T/C [28] was 17.4%, the viability, T/C [29] was 25.9% and the viability, T/C [30] was 19.2%. It also gave a viability, T/C [31] of 20.8%, a viability, T/C [32] of 20% and a viability, T/C [33] of 23.5%. For the same molecule, the viability, T/C [34] was 18.3%, the viability, T/C [35] was 23.7% and the viability, T/C [36] was 22%.
